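A five-concentration, 48-hour dose response in 96-well plates underlies each endpoint, interpolated linearly between surrounding concentrations. The concentration for full growth arrest is given as TGI.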
What was measured:
Experiment in all cases: NCI anticancer screen, dose series, 48 h
SK-OV-3 ovarian = tested on: SK-OV-3 ovarian
HCT-15 colon = tested on: HCT-15 colon
SR leukemia = tested on: SR leukemia
COLO 205 colon = tested on: COLO 205 colon
SN12C renal = tested on: SN12C renal
EKVX NSCLC = tested on: EKVX NSCLC
HCC-2998 colon = tested on: HCC-2998 colon
MOLT-4 leukemia = tested on: MOLT-4 leukemia
SNB-75 CNS = tested on: SNB-75 CNS
SF-539 CNS = tested on: SF-539 CNS

| Structure (SMILES) | TGI (SK-OV-3 ovarian) | TGI (HCT-15 colon) | TGI (SR leukemia) | TGI (COLO 205 colon) | TGI (SN12C renal) | TGI (EKVX NSCLC) | TGI (HCC-2998 colon) | TGI (MOLT-4 leukemia) | TGI (SNB-75 CNS) | TGI (SF-539 CNS) |
| --- | --- | --- | --- | --- | --- | --- | --- | --- | --- | --- |
| COc1cc(C2c3cc(OC)c(OC)c(O)c3C(=O)C3CCC(=O)N32)cc(OC)c1OC (stereo not drawn) | > 100 µM | > 100 µM | > 100 µM | 71.9 µM | > 100 µM | > 100 µM | > 100 µM | > 100 µM | > 100 µM | > 100 µM |
| CC(=O)OCC1OC(n2c(N)c(C#N)c(-c3cccc(Cl)c3)c(C#N)c2=S)C(OC(C)=O)C(OC(C)=O)C1OC(C)=O (stereo not drawn) | 57.1 µM | > 100 µM | 42.8 µM | 29.7 µM | > 100 µM | > 100 µM | 22.7 µM | 51.5 µM | 56.2 µM | 27.7 µM |
| CC(=O)OCCOCNC(=S)N/N=C(\C)c1cccs1 | > 100 µM | > 100 µM | > 100 µM | > 100 µM | > 100 µM | > 100 µM | > 100 µM | > 100 µM | > 100 µM | > 100 µM |
| Cc1ccc(N=C2SC(=NN(C)C)SC2=Nc2ccc(C)cc2)cc1 | > 100 µM | > 100 µM | > 100 µM | > 100 µM | > 100 µM | > 100 µM | > 100 µM | > 100 µM | > 100 µM | > 100 µM |
| COc1ccc(N2N=NN(C(C)C)/C2=C(/Cl)c2nnnn2-c2ccc(OC)cc2)cc1 | 32.8 µM | 31.4 µM | > 31.8 µM | 13.1 µM | 28.2 µM | 36.1 µM | 34.4 µM | 14.8 µM | 26.5 µM | 33.5 µM |
| COC1=CC(=O)c2nc3ccccc3c3ccnc1c23 | > 100 µM | 13.5 µM | 10.8 µM | 26.3 µM | > 45.1 µM | 25.8 µM | 11.8 µM | 13 µM | 46.1 µM | 13.3 µM |
| CC(=O)OCC1OC(SC2=NC(=O)/C(=C/c3ccccc3)S2)C(OC(C)=O)C(OC(C)=O)C1OC(C)=O (stereo not drawn) | > 100 µM | > 100 µM | 51.5 µM | > 100 µM | > 100 µM | 70.4 µM | > 100 µM | 54.5 µM | 44.7 µM | 45.7 µM |
| CN(/N=C/c1ccc(Cl)cc1)C1=NCCCCN1 | > 100 µM | > 100 µM | > 100 µM | > 100 µM | > 100 µM | > 100 µM | > 100 µM | > 100 µM | > 100 µM | > 100 µM |
| C=CCOCn1ccc(N)nc1=O | > 100 µM | > 100 µM | > 100 µM | > 100 µM | > 100 µM | > 100 µM | > 100 µM | > 100 µM | > 100 µM | > 100 µM |
| COc1ccc(N2C(=O)C3c4[nH]c5ccccc5c4C4c5ccccc5CC4C3C2=O)cc1 (stereo not drawn) | > 100 µM | > 100 µM | > 100 µM | > 100 µM | > 100 µM | > 100 µM | > 100 µM | > 100 µM | > 100 µM | > 100 µM |
| CCOC(=O)C(NC(=O)CC)(Nc1ccc(S(=O)(=O)Nc2ccc(OC)nn2)cc1)C(F)(F)F (stereo not drawn) | > 100 µM | > 100 µM | > 100 µM | > 100 µM | > 100 µM | > 100 µM | > 100 µM | > 100 µM | > 100 µM | > 100 µM |
| NCCS(=O)(=O)O |  | > 100 µM | > 100 µM | > 100 µM | > 100 µM | > 100 µM | > 100 µM | > 100 µM | > 100 µM | > 100 µM |
| COc1ccc(Cn2c3ccc([N+](=O)[O-])cc3c(=O)n2Cc2ccccn2)cc1 | > 100 µM | > 100 µM | > 100 µM | > 100 µM | > 100 µM | > 100 µM | > 100 µM | > 100 µM | > 100 µM | > 100 µM |
| Cc1cc2oc3c(ccc(=O)n3C)c(=O)c2c(C)c1Cl | > 100 µM | > 100 µM | > 100 µM | > 100 µM | > 100 µM | > 100 µM | > 100 µM |  | > 100 µM | 74.6 µM |
| CC(C)C1=C(Cc2ccccc2)C(=O)O/C1=C\c1ccc(O)c(Cl)c1 | 33.7 µM | 29.6 µM | 26.9 µM | 34.6 µM | 30.7 µM | 30.3 µM | 28.7 µM | 28.1 µM | 30.6 µM | 33.2 µM |
